Reference: patent US9993494B2, “Compositions and methods for treating fibrotic disease” (eFFECTOR Therapeutics, Inc., priority 2014, dated 2018)

System: normal human lung fibroblasts
Assay: Ribosomal profiling: translational efficiency in TGFβ-treated fibroblasts
Type: cell-based
Experimental: Ribosomal profiling allows for measurement of changes in transcription and translation on a genome-wide basis accompanying TGFβ-dependent transformation of fibroblasts to myofibroblasts. Ribosomal profiles of the TGFβ-treated fibroblasts from Example 1 (about 6×10^6 cells/10 cm plate) were prepared and analyzed for changes in translational efficiencies with respect to potential disease-associated cellular changes accompanying this TGFβ-induced transformation.
Briefly, cells were washed with cold PBS supplemented with cycloheximide and lysed with 1× mammalian cell lysis buffer for 10 minutes on ice. Lysates were clarified by centrifugation for 10 minutes at 14,000 rpm and supernatants were collected. Cell lysates were processed to generate ribosomal protected fragments and total mRNA according to the instructions included with the ARTseq Ribosome Profiling Kit (Illumina, San Diego, Calif.). Sequencing of total RNA (RNA) and of ribosome-protected fragments of RNA (RPF) was carried out using RNA-Seq methodology according to the manufacturer's instructions (Illumina). To analyze the ribosomal profiles, RNA-Seq reads were processed with tools from the FASTX-Toolkit (fastq_quality_trimmer, fastx_clipper and fastx_trimmer). Unprocessed and processed reads were evaluated for a variety of quality measures using FastQC, and processed reads were mapped to the human genome using TopHat (see, e.g., Trapnell et al., Bioinformatics 25:1105, 2009). Gene-by-gene assessment of the number of fragments strictly and uniquely mapping to the coding region of each gene was conducted using HTSeq-count, a component of the HTSeq package. […] Genes with low counts in either RPF or RNA were excluded from differential analyses. Pathway and network analyses of differential data were conducted using Ingenuity Pathway Analysis (IPA).

TGFβ
change in translational profile of CTPS caused by TGFβ (ENSG00000171793, Control vs. TGFβ): D (D = <1.0 to 1.5)
Log2 TE RPS21 (ENSG00000171858, 5 replicates): 1.846
Log2 TE RPS7 (ENSG00000171863, 5 replicates): 1.549
Log2 TE QARS (ENSG00000172053, 5 replicates): 1.362
change in translational profile of QARS caused by TGFβ (ENSG00000172053, Control vs. TGFβ): D (D = <1.0 to 1.5)
Log2 TE RPL38 (ENSG00000172809, 5 replicates): 1.353
change in translational profile of RPL38 caused by TGFβ (ENSG00000172809, Control vs. TGFβ): E (E = <1.5 to 2.5)
Log2 TE HSPB7 (ENSG00000173641, 5 replicates): 1.292
change in translational profile of MRPL45 caused by TGFβ (ENSG00000174100, Control vs. TGFβ): D (D = <1.0 to 1.5)
Log2 TE EVX2 (ENSG00000174279, 5 replicates): 2.887
Log2 TE RPL4 (ENSG00000174444, 5 replicates): 1.688
change in translational profile of RPL4 caused by TGFβ (ENSG00000174444, Control vs. TGFβ): E (E = <1.5 to 2.5)
Log2 TE RPL15 (ENSG00000174748, 5 replicates): 1.254
change in translational profile of RPL15 caused by TGFβ (ENSG00000174748, Control vs. TGFβ): D (D = <1.0 to 1.5)
Log2 TE DES (ENSG00000175084, 5 replicates): 1.204
change in translational profile of DES caused by TGFβ (ENSG00000175084, Control vs. TGFβ): E (E = <1.5 to 2.5)
Log2 TE CST6 (ENSG00000175315, 5 replicates): 1.241
Log2 TE EIF3F (ENSG00000175390, 5 replicates): 1.29
change in translational profile of EIF3F caused by TGFβ (ENSG00000175390, Control vs. TGFβ): D (D = <1.0 to 1.5)
Log2 TE CLCF1 (ENSG00000175505, 5 replicates): 1.594
change in translational profile of CLCF1 caused by TGFβ (ENSG00000175505, Control vs. TGFβ): E (E = <1.5 to 2.5)
Log2 TE AMIGO3 (ENSG00000176020, 5 replicates): −1.314
change in translational profile of AMIGO3 caused by TGFβ (ENSG00000176020, Control vs. TGFβ): C (C = <−1.0 to −1.5)
Log2 TE C14orf49 (ENSG00000176438, 5 replicates): −1.044
change in translational profile of C14orf49 caused by TGFβ (ENSG00000176438, Control vs. TGFβ): C (C = <−1.0 to −1.5)
Log2 TE RPLP2 (ENSG00000177600, 5 replicates): 1.694
change in translational profile of RPLP2 caused by TGFβ (ENSG00000177600, Control vs. TGFβ): E (E = <1.5 to 2.5)
Log2 TE RPS27 (ENSG00000177954, 5 replicates): 1.429
change in translational profile of IMPDH2 caused by TGFβ (ENSG00000178035, Control vs. TGFβ): D (D = <1.0 to 1.5)
Log2 TE DNAJC22 (ENSG00000178401, 5 replicates): −1.189
change in translational profile of DNAJC22 caused by TGFβ (ENSG00000178401, Control vs. TGFβ): B (B = <−1.5 to −2.5)
Log2 TE YOD1 (ENSG00000180667, 5 replicates): 1.146
Log2 TE PGBD4 (ENSG00000182405, 5 replicates): 1.055
Log2 TE RPL35A (ENSG00000182899, 5 replicates): 1.627
change in translational profile of RPL35A caused by TGFβ (ENSG00000182899, Control vs. TGFβ): E (E = <1.5 to 2.5)
change in translational profile of LENG9 caused by TGFβ (ENSG00000182909, Control vs. TGFβ): D (D = <1.0 to 1.5)
change in translational profile of C22orf32 caused by TGFβ (ENSG00000183172, Control vs. TGFβ): D (D = <1.0 to 1.5)
Log2 TE CHEK2 (ENSG00000183765, 5 replicates): −1.457
change in translational profile of NPW caused by TGFβ (ENSG00000183971, Control vs. TGFβ): D (D = <1.0 to 1.5)
Log2 TE ALDH1A3 (ENSG00000184254, 5 replicates): −1.327
Log2 TE PDE4B (ENSG00000184588, 5 replicates): −2.021
change in translational profile of PDE4B caused by TGFβ (ENSG00000184588, Control vs. TGFβ): B (B = <−1.5 to −2.5)
Log2 TE CDCA2 (ENSG00000184661, 5 replicates): −1.573
Log2 TE 5-Sep (ENSG00000184702, 5 replicates): 1.209
change in translational profile of ROBO2 caused by TGFβ (ENSG00000185008, Control vs. TGFβ): C (C = <−1.0 to −1.5)
Log2 TE SEMA4B (ENSG00000185033, 5 replicates): −1.413
Log2 TE SH3BGR (ENSG00000185437, 5 replicates): 1.121
change in translational profile of PTCH1 caused by TGFβ (ENSG00000185920, Control vs. TGFβ): D (D = <1.0 to 1.5)
Log2 TE POLR1D (ENSG00000186184, 5 replicates): 1.23
change in translational profile of POLR1D caused by TGFβ (ENSG00000186184, Control vs. TGFβ): E (E = <1.5 to 2.5)
Log2 TE RPS23 (ENSG00000186468, 5 replicates): 1.302
Log2 TE DYNC2H1 (ENSG00000187240, 5 replicates): −1.228
change in translational profile of DYNC2H1 caused by TGFβ (ENSG00000187240, Control vs. TGFβ): B (B = <−1.5 to −2.5)
Log2 TE TET3 (ENSG00000187605, 5 replicates): 1.541
Log2 TE ZSCAN23 (ENSG00000187987, 5 replicates): −1.048
Log2 TE RPL14 (ENSG00000188846, 5 replicates): 1.745
change in translational profile of RPL14 caused by TGFβ (ENSG00000188846, Control vs. TGFβ): E (E = <1.5 to 2.5)
change in translational profile of LRRK2 caused by TGFβ (ENSG00000188906, Control vs. TGFβ): C (C = <−1.0 to −1.5)
Log2 TE ZNF33A (ENSG00000189180, 5 replicates): −1.058
